Laboratory results published in patent publication US20140315933A1, “CHEMICAL COMPOUNDS” (Pfizer Limited, priority 2013, published 2014).
Where a name gives a salt, the structure may show the parent alone.

Target: T1, URAT-1 transporter (Homo sapiens, UniProt Q96S37)
T1 construct: expressed in transfected cells
Experiment: URAT-1 inhibitor activity: [14C]-uric acid uptake into CHO-URAT1(L)GFP#8 (CHO#8) cells, scintillation proximity
Format: cell-based
Summary of the method: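 Scintillation proximity read-out of 30 nM (final) [14C]-uric acid uptake over three hours at room temperature in chloride-free HEPES buffer pH 7.4. Compounds, 0–10 μM final with 0.25% DMSO, were added 15 minutes before substrate; cells were a clonal CHO line with human URAT1(L)-eGFP, preincubated 1 hour in chloride buffer.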

T1 sequence (Q96S37 with tags, fused parts or gaps): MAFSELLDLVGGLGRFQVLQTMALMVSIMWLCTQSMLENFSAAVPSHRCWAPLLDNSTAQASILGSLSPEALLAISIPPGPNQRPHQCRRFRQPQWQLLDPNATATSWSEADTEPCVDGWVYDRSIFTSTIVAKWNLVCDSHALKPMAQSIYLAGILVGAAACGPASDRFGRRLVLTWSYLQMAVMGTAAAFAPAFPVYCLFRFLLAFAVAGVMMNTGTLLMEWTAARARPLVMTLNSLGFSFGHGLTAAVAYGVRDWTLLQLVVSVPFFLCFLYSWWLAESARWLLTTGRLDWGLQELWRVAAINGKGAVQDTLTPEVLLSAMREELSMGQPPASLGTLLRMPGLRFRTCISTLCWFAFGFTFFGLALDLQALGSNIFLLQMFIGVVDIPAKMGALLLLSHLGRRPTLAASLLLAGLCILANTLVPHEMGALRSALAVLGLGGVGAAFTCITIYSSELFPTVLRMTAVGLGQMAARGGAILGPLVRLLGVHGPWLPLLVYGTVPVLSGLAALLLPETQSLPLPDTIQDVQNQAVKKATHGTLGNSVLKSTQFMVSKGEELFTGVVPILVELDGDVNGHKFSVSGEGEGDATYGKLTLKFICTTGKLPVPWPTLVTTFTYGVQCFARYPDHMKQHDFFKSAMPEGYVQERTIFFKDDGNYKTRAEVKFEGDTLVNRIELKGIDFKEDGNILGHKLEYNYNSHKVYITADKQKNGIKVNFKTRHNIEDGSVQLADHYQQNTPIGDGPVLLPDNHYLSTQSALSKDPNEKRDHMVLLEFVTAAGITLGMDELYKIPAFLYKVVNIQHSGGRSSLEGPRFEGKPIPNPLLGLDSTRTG

Which IC50 does the source give for `O=S(=O)(Nc1nccs1)c1ccc(Oc2ccc(Cl)cc2OC(F)(F)F)c(F)c1` [Example 70, 4-[4-chloro-2-(trifluoromethoxy)phenoxy]-3-fluoro-N-(1,3-thiazol-2-yl)benzenesulfonamide] here?
Its IC50 is > 10 µM.

For `COc1cc(C)cc(Oc2cc(F)c(S(=O)(=O)Nc3nncs3)cc2Cl)c1` [compound 301], which IC50 is on record?
The IC50 was 0.382 µM.

`N#Cc1cc(S(=O)(=O)Nc2nccs2)ccc1Oc1cccc(CO)c1` [compound 177] was tested. Which IC50 did it give?
Its IC50 is 0.584 µM.

For `N#Cc1cc(S(=O)(=O)Nc2ncns2)ccc1Oc1cccnc1` [compound 253, trifluoroacetic acid salt], which IC50 is on record?
Its IC50 is 2.13 µM.

`COc1ccc(C)cc1Oc1cc(F)c(S(=O)(=O)Nc2nncs2)cc1Cl` [compound 300] was tested. Which IC50 did it give?
Its IC50 is 0.329 µM.

How did the IC50 turn out when `N#Cc1cc(Oc2ccc(S(=O)(=O)Nc3ncc(Cl)s3)cc2C#N)ccc1F` [compound 193] was run?
The IC50 was 0.834 µM.

For `COc1cc(F)ccc1Oc1ccc(S(=O)(=O)Nc2ncns2)cc1C#N` [compound 286], which IC50 is on record?
Its IC50 is 1.01 µM.

Which IC50 does the source give for `COc1ccc(OC(F)(F)F)cc1Oc1ccc(S(=O)(=O)Nc2ncns2)cc1C#N` [Example 28, 3-cyano-4-[2-methoxy-5-(trifluoromethoxy)phenoxy]-N-(1,2,4-thiadiazol-5-yl)benzenesulfonamide diethylamine salt] here?
Its IC50 is > 7.45 µM.

How did the IC50 turn out when `COc1cc(Cl)c(Cl)cc1Oc1ccc(S(=O)(=O)Nc2ncns2)cc1C#N` [Example 9, 3-cyano-4-(4,5-dichloro-2-methoxyphenoxy)-N-(1,2,4-thiadiazol-5-yl)benzenesulfonamide] was run?
Its IC50 is > 2.81 µM.

Which IC50 does the source give for `N#Cc1cc(S(=O)(=O)Nc2ncc(F)s2)ccc1Oc1ccc(F)c(Cl)c1` [Example 111, 4-(3-chloro-4-fluorophenoxy)-3-cyano-N-(5-fluoro-1,3-thiazol-2-yl)benzenesulfonamide] here?
Its IC50 is 0.871 µM.

How did the IC50 turn out when `COc1cc(Cl)ccc1Oc1ccc(S(=O)(=O)Nc2nncs2)c(Cl)c1` [Example 82, 2-chloro-4-(4-chloro-2-methoxyphenoxy)-N-(1,3,4-thiadiazol-2-yl)benzenesulfonamide diethylamine salt] was run?
Its IC50 is 0.34 µM.

Which IC50 does the source give for `COc1cc(C)ccc1Oc1cc(F)c(S(=O)(=O)Nc2nncs2)cc1Cl` [compound 299] here?
The IC50 was 4.37 µM.

How did the IC50 turn out when `N#Cc1cc(S(=O)(=O)Nc2nccs2)ccc1Oc1ccccc1Br` [compound 182] was run?
Its IC50 is 1.33 µM.

`N#Cc1cc(S(=O)(=O)Nc2ncc(F)s2)ccc1Oc1cc(F)cc(Cl)c1` [Example 126, 4-(3-chloro-5-fluorophenoxy)-3-cyano-N-(5-fluoro-1,3-thiazol-2-yl)benzenesulfonamide] was tested. Which IC50 did it give?
Its IC50 is 0.699 µM.

With `N#Cc1cc(S(=O)(=O)Nc2ncns2)ccc1Oc1ccc(C(F)(F)F)cc1C(F)(F)F` [Example 33, 4-[2,4-bis(trifluoromethyl)phenoxy]-3-cyano-N-(1,2,4-thiadiazol-5-yl)benzenesulfonamide] as the compound, how does the IC50 read?
The IC50 was 6.19 µM.

Which IC50 does the source give for `N#Cc1cc(S(=O)(=O)Nc2ncns2)ccc1Oc1ccc(C(F)(F)F)nc1` [Example 21, 3-cyano-N-(1,2,4-thiadiazol-5-yl)-4-{[6-(trifluoromethyl)pyridin-3-yl]oxy}benzenesulfonamide] here?
The IC50 was > 10 µM.

Which IC50 does the source give for `Cc1ccc(F)c(Oc2ccc(S(=O)(=O)Nc3ncc(F)s3)cc2C#N)c1F` [Example 123, 3-cyano-4-(2,6-difluoro-3-methylphenoxy)-N-(5-fluoro-1,3-thiazol-2-yl)benzenesulfonamide] here?
Its IC50 is 1.25 µM.

`N#Cc1cc(S(=O)(=O)Nc2ncns2)ccc1Oc1cccc(C(F)(F)F)c1F` [Example 53, 3-cyano-4-[2-fluoro-3-(trifluoromethyl)phenoxy]-N-(1,2,4-thiadiazol-5-yl)benzenesulfonamide] was tested. Which IC50 did it give?
The IC50 was 5.24 µM.

With `N#Cc1cc(S(=O)(=O)Nc2nccs2)ccc1Oc1ccc(Br)nc1` [compound 171] as the compound, how does the IC50 read?
Its IC50 is 0.671 µM.

`O=S(=O)(Nc1ncns1)c1cc(F)c(Oc2ccc(F)c(F)c2)c(F)c1` [compound 198] was tested. Which IC50 did it give?
Its IC50 is 2.19 µM.

Which IC50 does the source give for `COc1cc(Cl)ccc1Oc1ccc(S(=O)(=O)Nc2ncns2)cc1C#N` [compound 267] here?
The IC50 was 0.93 µM.

How did the IC50 turn out when `COc1ccc(Cl)cc1Oc1ccc(S(=O)(=O)Nc2ncns2)cc1C#N` [Example 10, 4-(5-chloro-2-methoxyphenoxy)-3-cyano-N-(1,2,4-thiadiazol-5-yl)benzenesulfonamide diethylamine salt] was run?
Its IC50 is > 5.76 µM.

How did the IC50 turn out when `N#Cc1cc(S(=O)(=O)Nc2ncc(F)s2)ccc1Oc1ccc(CCCO)cc1` [Example 147, 3-cyano-N-(5-fluoro-1,3-thiazol-2-yl)-4-[4-(3-hydroxypropyl)phenoxy]benzenesulfonamide] was run?
Its IC50 is > 10 µM.

How did the IC50 turn out when `COc1cccc(Oc2ccc(S(=O)(=O)Nc3ncc(F)s3)cc2C#N)c1` [Example 109, 3-cyano-N-(5-fluoro-1,3-thiazol-2-yl)-4-(3-methoxyphenoxy)benzenesulfonamide] was run?
The IC50 was 0.552 µM.

Which IC50 does the source give for `O=S(=O)(Nc1nncs1)c1cc(F)c(Oc2ccc(F)c(F)c2)cc1F` [compound 209] here?
Its IC50 is > 7.25 µM.

How did the IC50 turn out when `COc1cc(F)cc(Oc2cc(F)c(S(=O)(=O)Nc3nncs3)cc2Cl)c1` [compound 297] was run?
The IC50 was 1.01 µM.

`N#Cc1ccc(Oc2ccc(S(=O)(=O)Nc3nncs3)cc2C#N)cc1Cl` [compound 219] was tested. Which IC50 did it give?
Its IC50 is 0.426 µM.

How did the IC50 turn out when `Cc1ccncc1Oc1cc(F)c(S(=O)(=O)Nc2nncs2)cc1Cl` [compound 313] was run?
Its IC50 is 3.17 µM.

`N#Cc1ccc(Oc2ccc(S(=O)(=O)Nc3nccs3)cc2F)cc1Cl` [compound 232] was tested. Which IC50 did it give?
The IC50 was 0.513 µM.

With `N#Cc1cc(Oc2ccc(S(=O)(=O)Nc3nccs3)cc2F)ccc1F` [compound 242] as the compound, how does the IC50 read?
Its IC50 is 0.967 µM.

`N#Cc1cc(S(=O)(=O)Nc2ncns2)ccc1Oc1ccc(Cl)cc1F` [Example 52, 4-(4-chloro-2-fluorophenoxy)-3-cyano-N-(1,2,4-thiadiazol-5-yl)benzenesulfonamide] was tested. Which IC50 did it give?
The IC50 was 0.65 µM.

With `N#Cc1cc(S(=O)(=O)Nc2ncns2)ccc1Oc1cccc(Cl)c1` [compound 291] as the compound, how does the IC50 read?
Its IC50 is 1.13 µM.

How did the IC50 turn out when `N#Cc1cc(S(=O)(=O)Nc2nccs2)ccc1Oc1ccc(OC(F)(F)F)cc1Br` [compound 164] was run?
The IC50 was > 10 µM.

How did the IC50 turn out when `O=S(=O)(Nc1cscn1)c1ccc(Oc2ccc(F)c(F)c2)cc1F` [compound 224] was run?
The IC50 was > 10 µM.

For `O=S(=O)(Nc1ncns1)c1ccc(Oc2ccc(F)c(F)c2)c(Cl)c1` [compound 202], which IC50 is on record?
The IC50 was 0.823 µM.

With `COc1c(Cl)cccc1Oc1ccc(S(=O)(=O)Nc2ncns2)cc1C#N` [compound 283] as the compound, how does the IC50 read?
Its IC50 is > 8.57 µM.

With `CCOc1cc(Cl)ccc1Oc1ccc(S(=O)(=O)Nc2ncns2)cc1C#N` [Example 12, 4-(4-chloro-2-ethoxyphenoxy)-3-cyano-N-(1,2,4-thiadiazol-5-yl)benzenesulfonamide] as the compound, how does the IC50 read?
The IC50 was 0.354 µM.

For `Cc1cncc(Oc2cc(F)c(S(=O)(=O)Nc3nncs3)cc2Cl)c1` [compound 311], which IC50 is on record?
Its IC50 is 1.1 µM.

With `CC(C)(C)c1ccc(Oc2ccc(S(=O)(=O)Nc3ncns3)cc2C#N)c(Cl)c1` [Example 38, 4-(4-tert-butyl-2-chlorophenoxy)-3-cyano-N-(1,2,4-thiadiazol-5-yl)benzenesulfonamide] as the compound, how does the IC50 read?
Its IC50 is > 7.1 µM.

For `N#Cc1ccc(Oc2c(F)cc(S(=O)(=O)Nc3ncns3)cc2Br)cc1Cl` [Example 250, 3-bromo-4-(3-chloro-4-cyanophenoxy)-5-fluoro-N-(1,2,4-thiadiazol-5-yl)benzenesulfonamide], which IC50 is on record?
The IC50 was 1.88 µM.

Which IC50 does the source give for `N#Cc1cc(S(=O)(=O)Nc2nccs2)ccc1Oc1ccc(Cl)cc1C(F)(F)F` [compound 163] here?
Its IC50 is 0.681 µM.

For `COc1cccc(Cl)c1Oc1cc(F)c(S(=O)(=O)Nc2nncs2)cc1Cl` [compound 303], which IC50 is on record?
The IC50 was > 1.43 µM.

Which IC50 does the source give for `N#Cc1cc(S(=O)(=O)Nc2ncc(Cl)s2)ccc1Oc1ccc(Cl)cc1F` [Example 87, 4-(4-chloro-2-fluorophenoxy)-N-(5-chloro-1,3-thiazol-2-yl)-3-cyanobenzenesulfonamide] here?
Its IC50 is 0.415 µM.

For `N#Cc1cc(S(=O)(=O)Nc2ncc(F)s2)ccc1Oc1ccccc1Cl` [Example 96, 4-(2-chlorophenoxy)-3-cyano-N-(5-fluoro-1,3-thiazol-2-yl)benzenesulfonamide], which IC50 is on record?
Its IC50 is 0.675 µM.

Which IC50 does the source give for `Cc1ccc(Oc2cc(F)c(S(=O)(=O)Nc3nncs3)cc2Cl)cc1` [compound 314] here?
The IC50 was > 10 µM.

`CC(C)Oc1ccc(F)cc1Oc1cc(F)c(S(=O)(=O)Nc2nncs2)cc1Cl` [compound 295] was tested. Which IC50 did it give?
The IC50 was 0.478 µM.

With `Cc1ccccc1Oc1cc(F)c(S(=O)(=O)Nc2nncs2)cc1Cl` [compound 328] as the compound, how does the IC50 read?
The IC50 was > 0.83 µM.

For `N#Cc1cc(S(=O)(=O)Nc2nccs2)ccc1Oc1ccccc1F` [compound 183], which IC50 is on record?
Its IC50 is > 6.03 µM.

How did the IC50 turn out when `COc1cccc(F)c1Oc1ccc(S(=O)(=O)Nc2ncns2)cc1C#N` [compound 265] was run?
The IC50 was 2.43 µM.

With `O=S(=O)(Nc1cscn1)c1cc(Cl)c(Oc2ccc(C(F)(F)F)cc2Br)cc1F` [Example 161, 4-[2-bromo-4-(trifluoromethyl)phenoxy]-5-chloro-2-fluoro-N-(1,3-thiazol-4-yl)benzenesulfonamide] as the compound, how does the IC50 read?
Its IC50 is > 4.85 µM.

With `COc1ccccc1Oc1ccc(S(=O)(=O)Nc2ncns2)cc1C#N` [compound 271] as the compound, how does the IC50 read?
The IC50 was 4.54 µM.

How did the IC50 turn out when `CC(Oc1ncc(Oc2ccc(S(=O)(=O)Nc3nncs3)cc2C#N)cc1Cl)C(F)(F)F` (centres unmarked) [Example 335] was run?
The IC50 was 3.26 µM.

With `CC(C)c1cccc(Oc2ccc(S(=O)(=O)Nc3ncns3)cc2Cl)c1` [Example 63, 3-chloro-4-[3-(propan-2-yl)phenoxy]-N-(1,2,4-thiadiazol-5-yl)benzenesulfonamide diethylamine salt] as the compound, how does the IC50 read?
Its IC50 is 1.44 µM.

`O=S(=O)(Nc1cscn1)c1cc(Cl)c(Oc2ccc(F)c(F)c2)cc1F` [compound 229] was tested. Which IC50 did it give?
Its IC50 is > 10 µM.

Which IC50 does the source give for `O=S(=O)(Nc1ncns1)c1ccc(Oc2ccc(F)c(F)c2)c(F)c1` [compound 195] here?
The IC50 was 2.24 µM.

`CCc1cc(F)ccc1Oc1ccc(S(=O)(=O)Nc2ncns2)c(C#N)c1` [Example 56, 2-cyano-4-(2-ethyl-4-fluorophenoxy)-N-(1,2,4-thiadiazol-5-yl)benzenesulfonamide] was tested. Which IC50 did it give?
The IC50 was 2.12 µM.
